For experiment [1], the target named is T1, human H3 receptor (Homo sapiens, UniProt Q9Y5N1).
T1 construct: expressed in transfected cells
Kind of experiment: H3 receptor binding (N-[3H]-α-methylhistamine displacement). The settings on record: membranes of SK-N-MC cells expressing cloned human H3 receptor, 0.8 nM N-[3H]-α-methylhistamine, 60 min at 25° C.

In experiment [2] the target is T2, Rat SERT (Rattus norvegicus, UniProt P31652).
T2 construct: A rat brain without cerebellum (Zivic Laboratories, Inc.—Pittsburgh, Pa.) was homogenized; tissue Zivic Laboratories, Inc; host or cells: rat brain without cerebellum, membranes
T2 sequence (P31652 whole entry): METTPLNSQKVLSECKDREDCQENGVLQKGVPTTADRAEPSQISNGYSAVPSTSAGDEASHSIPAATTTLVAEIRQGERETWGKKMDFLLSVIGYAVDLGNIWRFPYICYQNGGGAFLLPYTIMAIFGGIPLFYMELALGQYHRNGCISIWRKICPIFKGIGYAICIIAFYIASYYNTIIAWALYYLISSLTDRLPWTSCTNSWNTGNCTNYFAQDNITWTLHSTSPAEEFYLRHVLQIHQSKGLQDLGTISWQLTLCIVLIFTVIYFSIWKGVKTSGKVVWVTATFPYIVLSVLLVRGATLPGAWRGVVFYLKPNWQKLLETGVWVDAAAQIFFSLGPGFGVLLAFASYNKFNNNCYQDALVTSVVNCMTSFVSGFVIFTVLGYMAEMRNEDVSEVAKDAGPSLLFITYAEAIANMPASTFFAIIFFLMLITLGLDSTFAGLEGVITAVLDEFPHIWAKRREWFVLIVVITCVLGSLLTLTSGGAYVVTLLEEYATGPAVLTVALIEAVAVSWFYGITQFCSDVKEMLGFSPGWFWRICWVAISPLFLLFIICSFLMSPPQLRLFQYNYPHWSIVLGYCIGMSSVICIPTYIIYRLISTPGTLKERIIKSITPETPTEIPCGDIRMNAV
Kind of experiment: Rat brain SERT binding ([3H]-citalopram displacement). The conditions noted are these: rat brain membranes without cerebellum, 0.6 nM [3H]-citalopram, 60 min at 25° C.; read-out: Rat SERT Ki. How it is done:
The supernatant was removed and re-centrifuged at 15,000 rpm for 30 min. […] Membranes were incubated with 0.6 nM [^3H]-Citalopram plus/minus test compounds for 60 min at 25° C. and harvested by rapid filtration over GF/C glass fiber filters (pretreated with 0.3% polyethylenimine) followed by four washes with ice-cold buffer.

In experiment [3] the target is T3, human SERT (Homo sapiens, UniProt P31645).
T3 construct: expressed in transfected cells; host or cells: HEK293 membranes
T3 sequence (P31645 whole entry): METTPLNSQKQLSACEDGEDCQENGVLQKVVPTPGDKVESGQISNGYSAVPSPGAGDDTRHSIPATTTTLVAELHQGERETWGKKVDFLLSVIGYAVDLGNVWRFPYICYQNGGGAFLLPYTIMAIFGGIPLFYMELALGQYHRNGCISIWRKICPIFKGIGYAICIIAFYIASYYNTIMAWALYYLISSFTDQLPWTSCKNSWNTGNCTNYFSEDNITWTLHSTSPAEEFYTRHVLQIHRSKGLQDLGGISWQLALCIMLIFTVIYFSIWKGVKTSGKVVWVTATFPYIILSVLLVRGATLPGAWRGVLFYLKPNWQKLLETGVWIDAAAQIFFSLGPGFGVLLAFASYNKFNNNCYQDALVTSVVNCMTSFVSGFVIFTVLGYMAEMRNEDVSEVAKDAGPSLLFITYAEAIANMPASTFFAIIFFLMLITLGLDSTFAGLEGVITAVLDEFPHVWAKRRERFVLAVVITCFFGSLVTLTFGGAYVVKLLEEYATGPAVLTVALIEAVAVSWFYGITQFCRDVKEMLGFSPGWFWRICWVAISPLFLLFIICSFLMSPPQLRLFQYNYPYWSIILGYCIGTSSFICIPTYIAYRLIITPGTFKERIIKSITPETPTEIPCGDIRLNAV
Kind of experiment: Human SERT binding (3H-citalopram displacement). The settings on record: HEK293 membranes expressing human SERT, rt 1 h. How it is done:
Homogenized HEK293 (Human Embryonic Kidney) membranes expressing the human SERT were incubated with ^3H-citalopram (SERT) at rt for 1 h in 50 mM Tris, 120 mM NaCl, 5 mM KCl (pH 7.4). […] The membranes were washed and the radioactivity was counted as above.

The structures appear in SMILES notation.

T1 sequence (Q9Y5N1 whole entry): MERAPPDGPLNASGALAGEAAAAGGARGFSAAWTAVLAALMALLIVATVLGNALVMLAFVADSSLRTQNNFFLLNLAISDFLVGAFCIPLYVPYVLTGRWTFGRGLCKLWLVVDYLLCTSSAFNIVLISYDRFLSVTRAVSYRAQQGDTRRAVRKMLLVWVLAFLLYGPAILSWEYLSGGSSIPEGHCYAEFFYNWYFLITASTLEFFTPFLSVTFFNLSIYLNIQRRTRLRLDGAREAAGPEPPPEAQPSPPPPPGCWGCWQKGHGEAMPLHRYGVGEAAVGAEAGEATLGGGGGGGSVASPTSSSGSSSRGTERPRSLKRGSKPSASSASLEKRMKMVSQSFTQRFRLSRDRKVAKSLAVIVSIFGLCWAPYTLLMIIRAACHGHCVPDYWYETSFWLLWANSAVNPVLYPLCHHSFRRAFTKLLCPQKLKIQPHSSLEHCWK

Turning to `COc1ccc(C2CN(C)Cc3cc(OCCCN4CCC(CCO)CC4)ccc32)cc1` (stereo not drawn) [Example 26, 2-(1-{3-[4-(4-Methoxy-phenyl)-2-methyl-1,2,3,4-tetrahydro-isoquinolin-7-yloxy]-propyl}-piperidin-4-yl)-ethanol], the Ki in experiment [1] came to 12 nM; in experiment [2], 2 nM; in experiment [3] it was 5 nM.
In the case of `CCN(CCCOc1ccc2c(c1)CN(C)CC2c1ccc(OC)cc1)CCOC` (stereo not drawn) [Example 40, Ethyl-(2-methoxy-ethyl)-{3-[4-(4-methoxy-phenyl)-2-methyl-1,2,3,4-tetrahydro-isoquinolin-7-yloxy]-propyl}-amine], the Ki is 20 nM in experiment [1], 9 nM in experiment [2] and 8 nM in experiment [3].
On to `CN1Cc2cc(OCCCN3CCC(F)CC3)ccc2C(c2ccc(N3CCOCC3)cc2)C1` (stereo not drawn) [Example 134, 7-[3-(4-Fluoro-piperidin-1-yl)-propoxy]-2-methyl-4-(4-morpholin-4-yl-phenyl)-1,2,3,4-tetrahydro-isoquinoline], for which the results for the Ki in experiment [1], in experiment [2] and in experiment [3] were 2 nM, 28 nM and 30 nM, respectively.
`COc1ccc(C2CN(C)Cc3cc(OCCCN4C[C@@H](C)O[C@@H](C)C4)ccc32)cc1` (stereo partly drawn) [Example 32, 7-[3-(2,6-Dimethyl-morpholin-4-yl)-propoxy]-4-(4-methoxy-phenyl)-2-methyl-1,2,3,4-tetrahydro-isoquinoline]: the inhibition constant (Ki) in experiment [1] amounted to 21 nM; in experiment [2], 8 nM; in experiment [3], 9 nM.
The matching figures for `COc1ccc(C2CN(C)Cc3cc(OCCCN4CC[C@@H](O)C4)ccc32)cc1` (stereo partly drawn) [Example 31, 1-{3-[4-(4-Methoxy-phenyl)-2-methyl-1,2,3,4-tetrahydro-isoquinolin-7-yloxy]-propyl}-(R)-pyrrolidin-3-ol]: 2 nM, 2 nM and 3 nM.
The matching figures for `CSc1ccc(C2CN(C)Cc3cc(OC4CCN(C5CC5)CC4)ccc32)cc1` (stereo not drawn) [Example 247, 7-(1-Cyclopropyl-piperidin-4-yloxy)-2-methyl-4-(4-methylsulfanyl-phenyl)-1,2,3,4-tetrahydro-isoquinoline]: 2 nM, 5 nM and 7 nM.
For the molecule `COCCN(CCCOc1ccc2c(c1)CN(C)CC2c1ccc(OC)cc1)CCOC` (stereo not drawn) [Example 17, Bis-(2-methoxy-ethyl)-{3-[4-(4-methoxy-phenyl)-2-methyl-1,2,3,4-tetrahydro-isoquinolin-7-yloxy]-propyl}-amine], the inhibitory constant (Ki) amounted to 273 nM in experiment [1], 10 nM in experiment [2] and 7 nM in experiment [3].
For `COc1ccc(C2CN(C)Cc3cc(OCC4CN(C(C)C)CCO4)ccc32)cc1` (stereo not drawn) [Example 254, 7-(4-Isopropyl-morpholin-2-ylmethoxy)-4-(4-methoxy-phenyl)-2-methyl-1,2,3,4-tetrahydro-isoquinoline] the same measures were 9 nM, 9 nM and 7 nM.
For `COc1ccc(C2CN(C)Cc3cc(CCCCN4CCOCC4)ccc32)cc1` (stereo not drawn) [Example 281, 4-(4-Methoxy-phenyl)-2-methyl-7-(4-morpholin-4-yl-butyl)-1,2,3,4-tetrahydro-isoquinoline] the same measures were 23 nM, 6 nM and 8 nM.
In the case of `CCN1CCOC(COc2ccc3c(c2)CN(C)CC3c2ccc(OC)cc2)C1` (mixture of isomers) [Example 257, 7-(4-Ethyl-morpholin-2-ylmethoxy)-4-(4-methoxy-phenyl)-2-methyl-1,2,3,4-tetrahydro-isoquinoline], the Ki in experiment [1] was 11 nM; in experiment [2] it was 8 nM; in experiment [3], 11 nM.
`COc1ccc(C2CN(C)Cc3cc(OCCCN4CCC(F)CC4)ccc32)cc1F` (racemic) [Example 142, 4-(3-Fluoro-4-methoxy-phenyl)-7-[3-(4-fluoro-piperidin-1-yl)-propoxy]-2-methyl-1,2,3,4-tetrahydro-isoquinoline]: the inhibition constant Ki in experiment [1] is 3 nM; in experiment [2], 4 nM; in experiment [3] it was 7 nM.
For `COc1ccc(C2CN(C)Cc3cc(OCCCN4CCN(C(=O)C5CCC5)CC4)ccc32)cc1` (stereo not drawn) [Example 6, Cyclobutyl-(4-{3-[4-(4-methoxy-phenyl)-2-methyl-1,2,3,4-tetrahydro-isoquinolin-7-yloxy]-propyl}-piperazin-1-yl)-methanone] the same measures were 534 nM, 15 nM and 15 nM.
Regarding `COc1ccc(C2CN(C)Cc3cc(C#CCCN4CCN(C(C)C)CC4)ccc32)cc1` (stereo not drawn) [Example 278, 7-[4-(4-Isopropyl-piperazin-1-yl)-but-1-ynyl]-4-(4-methoxy-phenyl)-2-methyl-1,2,3,4-tetrahydro-isoquinoline], the inhibition constant (Ki) in experiment [1] was 315 nM; in experiment [2], 5 nM; in experiment [3], 9 nM.
On to `COc1ccc(C2CN(C)Cc3cc(OCCCN4CCN(C(=O)c5cccn5C)CC4)ccc32)cc1` (stereo not drawn) [Example 13, (4-{3-[4-(4-Methoxy-phenyl)-2-methyl-1,2,3,4-tetrahydro-isoquinolin-7-yloxy]-propyl}-piperazin-1-yl)-(1-methyl-1H-pyrrol-2-yl)-methanone], for which the inhibitory constant (Ki) was determined as 2400 nM in experiment [1], 10 nM in experiment [2] and 11 nM in experiment [3].
Turning to `COc1ccc(C2CN(C)Cc3cc(OCC4CCN(CC(C)C)CC4)ccc32)cc1` (stereo not drawn) [Example 110, 7-(1-Isobutyl-piperidin-4-ylmethoxy)-4-(4-methoxy-phenyl)-2-methyl-1,2,3,4-tetrahydro-isoquinoline], the Ki was 5 nM in experiment [1], 4 nM in experiment [2] and 5 nM in experiment [3].
As to `COc1ccc(C2CN(C)Cc3cc(OCC4CN(C5CC5)CCO4)ccc32)cc1` (mixture of isomers) [Example 259, 7-(4-Cyclopropyl-morpholin-2-ylmethoxy)-4-(4-methoxy-phenyl)-2-methyl-1,2,3,4-tetrahydro-isoquinoline], the Ki came out at 13 nM in experiment [1], 13 nM in experiment [2] and 22 nM in experiment [3].
As for `COc1ccc(C2CN(C)Cc3cc(OCCCN4CCC[C@@H]4CO)ccc32)cc1` (stereo partly drawn) [Example 30, (1-{3-[4-(4-Methoxy-phenyl)-2-methyl-1,2,3,4-tetrahydro-isoquinolin-7-yloxy]-propyl}-pyrrolidin-(2R)-yl)-methanol], the Ki in experiment [1] is 3 nM; in experiment [2], 2 nM; in experiment [3], 2 nM.
Take `CSc1ccc(C2CN(C)Cc3cc(OC4CCN(CCF)CC4)ccc32)cc1` (stereo not drawn) [Example 179, 7-[1-(2-Fluoro-ethyl)-piperidin-4-yloxy]-2-methyl-4-(4-methylsulfanyl-phenyl)-1,2,3,4-tetrahydro-isoquinoline]: the Ki in experiment [1] came out at 5 nM; in experiment [2], 3 nM; in experiment [3] it was 4 nM.
For `CCOC(=O)N1CCN(CCCOc2ccc3c(c2)CN(C)CC3c2ccc(OC)cc2)CC1` (stereo not drawn) [Example 12, 4-{3-[4-(4-Methoxy-phenyl)-2-methyl-1,2,3,4-tetrahydro-isoquinolin-7-yloxy]-propyl}-piperazine-1-carboxylic acid ethyl ester], the inhibition constant (Ki) in experiment [1] was determined as 59 nM; in experiment [2], 6 nM; in experiment [3], 16 nM.
For `COc1ccc(C2CN(C(C)(C)C)Cc3cc(OCCCN4CCCCC4)ccc32)cc1` (stereo not drawn) [Example 64, 2-tert-Butyl-4-(4-methoxy-phenyl)-7-(3-piperidin-1-yl-propoxy)-1,2,3,4-tetrahydro-isoquinoline] the same measures were 1 nM, 222 nM and 252 nM.
As to `COc1ccc(C2CN(C)Cc3cc(OCCCN4CCN(C(C)C)CC4)ccc32)cc1` (stereo not drawn) [Example 199, 7-[3-(4-Isopropyl-piperazin-1-yl)-propoxy]-4-(4-methoxy-phenyl)-2-methyl-1,2,3,4-tetrahydro-isoquinoline], the Ki in experiment [1] is 8 nM; in experiment [2], 2 nM; in experiment [3], 2 nM.
On to `COc1ccc(C2CN(C)Cc3cc(OCCCN4CCCCC4CCO)ccc32)cc1` (stereo not drawn) [Example 36, 2-(1-{3-[4-(4-Methoxy-phenyl)-2-methyl-1,2,3,4-tetrahydro-isoquinolin-7-yloxy]-propyl}-piperidin-2-yl)-ethanol], for which the Ki was 7 nM in experiment [1], 2 nM in experiment [2] and 3 nM in experiment [3].
Take `CN1Cc2cc(OCCCN3CCC(F)CC3)ccc2C(c2ccc(C#N)cc2)C1` (stereo not drawn) [Example 136, 4-{7-[3-(4-Fluoro-piperidin-1-yl)-propoxy]-2-methyl-1,2,3,4-tetrahydro-isoquinolin-4-yl}-benzonitrile]: the inhibition constant Ki in experiment [1] was 4 nM; in experiment [2] it was 9 nM; in experiment [3], 20 nM.
On to `COc1ccc(C2CN(C)Cc3cc(CCCCN4CCC(F)(F)CC4)ccc32)cc1` (stereo not drawn) [Example 280, 7-[4-(4,4-Difluoro-piperidin-1-yl)-butyl]-4-(4-methoxy-phenyl)-2-methyl-1,2,3,4-tetrahydro-isoquinoline], for which the Ki amounted to 96 nM in experiment [1], 4 nM in experiment [2] and 13 nM in experiment [3].
Consider `COc1ccc(C2CN(C)Cc3cc(OC4CCN(CCF)CC4)ccc32)cc1` (stereo not drawn) [Example 152, 7-[1-(2-Fluoro-ethyl)-piperidin-4-yloxy]-4-(4-methoxy-phenyl)-2-methyl-1,2,3,4-tetrahydro-isoquinoline], for which the Ki amounted to 5 nM in experiment [1], 6 nM in experiment [2] and 11 nM in experiment [3].

Values taken from patent US20060194837A1, “Tetrahydroisoquinoline compounds” (priority 2004, published 2006).
